Data taken from US11180504B2 (ORCHID PHARMA LTD., priority 2016, dated 2021).
Converted amounts (≈) assume the structure as drawn. Where two headings read alike, the source gives them in different places.

Experiments:
[1] = tested on: carbapenemase producing K. pneumoniae; assay: MIC by broth micro-dilution (CLSI), carbapenemase producing K. pneumoniae; assay type: cell-based, Klebsiella pneumoniae
[2] = tested on: carbapenem sensitive Pseudomonas aeruginosa; assay: MIC by broth micro-dilution (CLSI), carbapenem sensitive P. aeruginosa; assay type: cell-based
[3] = tested on: carbapenem sensitive Escherichia coli; assay: MIC by broth micro-dilution (CLSI), carbapenem sensitive E. coli; assay type: cell-based
[4] = tested on: methicillin-sensitive Staphylococcus aureus; assay: MIC by broth micro-dilution (CLSI), methicillin-sensitive S. aureus; assay type: cell-based; details: MSSA S. aureus ATCC29213
[5] = Klebsiella pneumoniae, ATCCBAA1705, KPC-2 K. pneumoniae ATCC BAA-1705, read-out: MIC
[6] = Pseudomonas aeruginosa, ATCC27853, Meropenem susceptible P. aeruginosa ATCC27853, read-out: MIC
[7] = Escherichia coli, ATCC25922, ESBL −ve E. coli ATCC25922, read-out: MIC
[8] = Staphylococcus aureus, ATCC 29213 / MSSA, read-out: MIC
[9] = KPC-2 K. pneumoniae ATCC BAA-1705
[10] = Meropenem susceptible P. aeruginosa ATCC27853

MIC [1, 5] [µg/mL] | MIC [2, 6] [µg/mL] | MIC [3, 7] [µg/mL] | MIC [4, 8] [µg/mL] | MIC [1, 9] [µg/mL] | MIC [2, 10] [µg/mL] | MIC ([3]; ESBL −ve E. coli ATCC25922) [µg/mL] | MIC [4] [µg/mL] | SMILES
2 (≈ 3.39 µM) | 8 (≈ 13.6 µM) | 0.5 (≈ 0.848 µM) | 4 (≈ 6.78 µM) |  |  |  |  | C[C@@H](NC(=O)Cn1cnnn1)[C@H]1C(=O)N2C(C(=O)O)=C(S[C@@H]3CN[C@H](C(=O)N4CCC5CNCC54CO)C3)[C@H](C)[C@H]12 (single isomer, unassigned) [Example 561]
1 (≈ 1.66 µM) | 2 (≈ 3.32 µM) | 0.25 (≈ 0.415 µM) | 2 (≈ 3.32 µM) |  |  |  |  | C[C@@H](NC(=O)Cn1cnnn1)[C@H]1C(=O)N2C(C(=O)O)=C(S[C@@H]3CN[C@H](C(=O)N4CC5CCN(C(=N)N)C5C4)C3)[C@H](C)[C@H]12 (single isomer, unassigned) [Example 569]
 |  |  |  | 1 (≈ 1.66 µM) | 2 (≈ 3.32 µM) | 0.125 (≈ 0.208 µM) | 1 (≈ 1.66 µM) | C[C@@H](NC(=O)Cn1cnnn1)[C@H]1C(=O)N2C(C(=O)O)=C(S[C@@H]3CN[C@H](C(=O)N4CC5CCN(C(=N)N)C5C4)C3)[C@H](C)[C@H]12 (single isomer, unassigned) [Example 570]
2 (≈ 3.08 µM) |  | 0.25 (≈ 0.385 µM) | 4 (≈ 6.17 µM) |  | 4 (≈ 6.17 µM) |  |  | C[C@@H](NC(=O)Cn1cnnn1)[C@H]1C(=O)N2C(C(=O)O)=C(S[C@@H]3CN[C@H](C(=O)N4CCC(C(=O)NCC(O)CN)CC4)C3)[C@H](C)[C@H]12 (single isomer, unassigned) [Example 572]
 |  |  |  | 2 (≈ 3.08 µM) | 1 (≈ 1.54 µM) | 0.125 (≈ 0.193 µM) | 4 (≈ 6.17 µM) | C[C@@H](NC(=O)Cn1cnnn1)[C@H]1C(=O)N2C(C(=O)O)=C(S[C@@H]3CN[C@H](C(=O)N4CCC(C(=O)NCC(O)CN)CC4)C3)[C@H](C)[C@H]12 (single isomer, unassigned) [Example 573]
1 (≈ 1.66 µM) | 4 (≈ 6.64 µM) | 0.25 (≈ 0.415 µM) | 2 (≈ 3.32 µM) |  |  |  |  | C[C@@H](NC(=O)Cn1cnnn1)[C@H]1C(=O)N2C(C(=O)O)=C(S[C@@H]3CN[C@H](C(=O)N4CC5CCN(CCN)C5C4)C3)[C@H](C)[C@H]12 (single isomer, unassigned) [Example 578]
1 (≈ 1.77 µM) | 2 (≈ 3.55 µM) | 0.25 (≈ 0.444 µM) | 4 (≈ 7.1 µM) |  |  |  |  | C[C@@H](NC(=O)Cn1cnnn1)[C@H]1C(=O)N2C(C(=O)O)=C(S[C@@H]3CN[C@H](C(=O)N4CC(N)C(CO)C4)C3)[C@H](C)[C@H]12 (single isomer, unassigned) [Example 586]

The remaining lines, values behind:

SMILES | MIC [1, 5] [µg/mL] | MIC [2, 6] [µg/mL] | MIC [3, 7] [µg/mL] | MIC [4, 8] [µg/mL] | MIC [1, 9] [µg/mL] | MIC [2, 10] [µg/mL] | MIC ([3]; ESBL −ve E. coli ATCC25922) [µg/mL] | MIC [4] [µg/mL]
C[C@@H](NC(=O)Cn1cnnn1)[C@H]1C(=O)N2C(C(=O)O)=C(S[C@@H]3CN[C@H](C(=O)N4CC5CC(CO)NC5C4)C3)[C@H](C)[C@H]12 (single isomer, unassigned) [Example 551] | 2 (≈ 3.39 µM) | 2 (≈ 3.39 µM) | 0.25 (≈ 0.424 µM) | 4 (≈ 6.78 µM) |  |  |  | 
C[C@@H](NC(=O)Cn1cnnn1)[C@H]1C(=O)N2C(C(=O)O)=C(S[C@@H]3CN[C@H](C(=O)N4CC5CCNC5(CO)C4)C3)[C@H](C)[C@H]12 (single isomer, unassigned) [Example 555] | 1 (≈ 1.7 µM) | 2 (≈ 3.39 µM) | 0.25 (≈ 0.424 µM) | 4 (≈ 6.78 µM) |  |  |  | 
C[C@@H](NC(=O)Cn1cnnn1)[C@H]1C(=O)N2C(C(=O)O)=C(S[C@@H]3CN[C@H](C(=O)N4CC5CCNC5(CO)C4)C3)[C@H](C)[C@H]12 (single isomer, unassigned) [Example 556] |  |  |  |  | 1 (≈ 1.7 µM) | 4 (≈ 6.78 µM) | 0.125 (≈ 0.212 µM) | 2 (≈ 3.39 µM)
C[C@@H](NC(=O)Cn1cnnn1)[C@H]1C(=O)N2C(C(=O)O)=C(SC3COC4(CNC4)C3)[C@H](C)[C@H]12 (single isomer, unassigned) [Example 557] | 4 (≈ 8.63 µM) |  |  |  |  | 16 (≈ 34.5 µM) | 0.125 (≈ 0.27 µM) | 4 (≈ 8.63 µM)
C[C@@H](NC(=O)Cn1cnnn1)[C@H]1C(=O)N2C(C(=O)O)=C(SC3COC4(CNC4)C3)[C@H](C)[C@H]12 (single isomer, unassigned) [Example 558] |  |  |  |  | 2 (≈ 4.31 µM) | 128 (≈ 276 µM) | 0.5 (≈ 1.08 µM) | 16 (≈ 34.5 µM)
C[C@@H](NC(=O)Cn1cnnn1)[C@H]1C(=O)N2C(C(=O)O)=C(S[C@@H]3CN[C@H](C(=O)N4CCC5CN(C(=N)N)CCC54)C3)[C@H](C)[C@H]12 (single isomer, unassigned) [Example 559] | 1 (≈ 1.62 µM) |  | 0.25 (≈ 0.406 µM) | 1 (≈ 1.62 µM) |  | 4 (≈ 6.5 µM) |  | 
C[C@@H](NC(=O)Cn1cnnn1)[C@H]1C(=O)N2C(C(=O)O)=C(S[C@@H]3CN[C@H](C(=O)N4CCC5CN(C(=N)N)CCC54)C3)[C@H](C)[C@H]12 (single isomer, unassigned) [Example 560] |  |  |  |  | 0.5 (≈ 0.812 µM) | 1 (≈ 1.62 µM) | 0.125 (≈ 0.203 µM) | 1 (≈ 1.62 µM)
